Laboratory results: PMC4476580, “Novel Broad Spectrum Inhibitors Targeting the Flavivirus Methyltransferase” (PLoS ONE, 2015)
Read-outs that look alike come from different tables or passages of the source.

Tests used:
[1] = MTT cell proliferation cytotoxicity assay; assay type: cell-based; settings: hamster; BHK-21 cells, MTT, 42 hours
Experimental: (§1) Cell-based assays were next performed to evaluate the biological activities of the selected compounds. The cytotoxicity of these compounds was first evaluated by using a MTT cell proliferation assay with a BHK-21 cell line (Table 1, fig 5), as we described previously. […] Therefore, these compounds were further investigated for their in vitro antiviral efficacy.
(§2) Cytotoxicity was measured using BHK-21 cells by a MTT cell proliferation assay using the 3-(4,5-dimethylthiazol-2-yl)-2,5-diphenyl tetrazolium bromide method (ATCC), as described previously.

[2] = system: BHK-21 cells; assay: MTT cell proliferation cytotoxicity assay; assay type: cell-based; settings: for CC50 values times higher than IC50 values: BHK-21 CC50 versus in vitro IC50; for CC50: BHK-21 cells, MTT, 42 hours
Experimental: as §1, §2

[3] = system: WNV; assay: Viral titer reduction assay; settings: for Inhibition of the WNV titer: highest concentration tested (200 μM)
[4] = molecular target: T1, WNV MTase (West Nile virus, UniProt Q9Q6P4); assay: biochemical; assay type: biochemical
T1 construct: containing the N-terminal 300, 266, 265, and 272 amino acids of NS5 protein, respectively; made in house
T1 sequence (Q9Q6P4 2529-2794 limits assumed): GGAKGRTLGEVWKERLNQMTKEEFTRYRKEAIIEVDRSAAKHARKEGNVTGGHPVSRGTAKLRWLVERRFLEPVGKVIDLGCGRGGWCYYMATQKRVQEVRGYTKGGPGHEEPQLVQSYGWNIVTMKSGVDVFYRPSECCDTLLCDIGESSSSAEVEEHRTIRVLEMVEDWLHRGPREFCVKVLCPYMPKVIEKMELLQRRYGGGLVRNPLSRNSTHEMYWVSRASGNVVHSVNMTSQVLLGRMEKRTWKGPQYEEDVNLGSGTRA

[5] = molecular target: T1, WNV MTase; assay: biochemical
[6] = molecular target: T2, DENV3 MTase (Dengue virus type 3, UniProt Q6YMS4); assay type: biochemical; settings: read-out: IC50 2’-O
T2 construct: containing the N-terminal 300, 266, 265, and 272 amino acids of NS5 protein, respectively; made in house
T2 sequence (Q6YMS4 2492-2753): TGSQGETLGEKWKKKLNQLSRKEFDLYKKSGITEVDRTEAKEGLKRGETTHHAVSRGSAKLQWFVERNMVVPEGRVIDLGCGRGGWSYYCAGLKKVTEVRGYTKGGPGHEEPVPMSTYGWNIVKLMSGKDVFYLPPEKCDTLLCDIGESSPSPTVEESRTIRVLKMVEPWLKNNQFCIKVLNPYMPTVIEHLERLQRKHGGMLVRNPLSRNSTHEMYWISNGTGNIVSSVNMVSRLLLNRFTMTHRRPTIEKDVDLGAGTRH

[7] = molecular target: T3, DENV2 MTase (Dengue virus type 2, UniProt P14340); assay type: biochemical; settings: read-out: IC50 2’-O
T3 construct: containing the N-terminal 300, 266, 265, and 272 amino acids of NS5 protein, respectively; made in house
T3 sequence (P14340 2493-2755 limits assumed): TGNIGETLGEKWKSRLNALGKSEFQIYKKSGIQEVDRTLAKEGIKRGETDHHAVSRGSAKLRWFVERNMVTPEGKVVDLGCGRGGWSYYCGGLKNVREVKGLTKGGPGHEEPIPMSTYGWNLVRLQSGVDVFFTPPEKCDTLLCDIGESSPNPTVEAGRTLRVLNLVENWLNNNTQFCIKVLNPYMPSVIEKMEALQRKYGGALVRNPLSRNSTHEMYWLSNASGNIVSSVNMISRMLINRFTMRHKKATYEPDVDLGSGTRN

[8] = molecular target: T3, DENV2 MTase; assay type: biochemical; settings: read-out: IC50 N7
[9] = molecular target: T2, DENV3 MTase; assay type: biochemical; settings: read-out: IC50 N7
[10] = molecular target: T4, YFV MTase (Yellow fever virus, UniProt P03314); assay type: biochemical; settings: read-out: IC50 2’-O
T4 sequence (P03314 2507-2771 limits assumed): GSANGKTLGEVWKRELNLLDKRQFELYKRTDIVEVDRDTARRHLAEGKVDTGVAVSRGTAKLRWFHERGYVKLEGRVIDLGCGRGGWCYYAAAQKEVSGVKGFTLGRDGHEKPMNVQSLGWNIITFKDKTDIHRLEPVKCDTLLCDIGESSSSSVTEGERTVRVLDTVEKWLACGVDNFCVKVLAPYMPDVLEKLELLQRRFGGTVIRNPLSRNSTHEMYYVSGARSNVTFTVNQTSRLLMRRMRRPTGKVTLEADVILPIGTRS

[11] = molecular target: T4, YFV MTase; assay type: biochemical; settings: read-out: IC50 N7

Structure (SMILES) | CC50 at 42 h [1] [µM] | CC50 values times higher than IC50 values [2] | IC50 ([4]; IC50 N7 No CHAPS) [µM] | IC50 ([4]; IC50 N7 with CHAPS) [µM] | IC50 [5] [µM] | IC50 ([4]; read-out: IC50 N7 No CHAPS) [µM] | IC50 ([5]; read-out: IC50 2’-O with CHAPS) [µM] | other results
O=C1CN2CCN(CC2)CC(=O)Nc2ccc(cc2)S(=O)(=O)c2ccc(cc2)NC(=O)CN2CCN(CC2)CC(=O)Nc2ccc(cc2)S(=O)(=O)c2ccc(cc2)N1 [NSC 36806] | 362 | ~10 | 39 | 35.5 | > 300 | – | – | EC50 ([3]; West Nile virus, 42 h): > 200 µM; Inhibition of the WNV titer [3]: did not inhibit the WNV titer
O=C1c2cc([N+](=O)[O-])ccc2-c2ccc3c4ccc5c6c(ccc(c7ccc1c2c73)c64)C(=O)c1cc([N+](=O)[O-])ccc1-5 [NSC 51535] | 5.7 | – | – | – | – | 3.9 | 5.6 | –
O=C1c2ccccc2C(=O)c2c1ccc(N1C(=O)c3ccccc3C1=O)c2-c1c(N2C(=O)c3ccccc3C2=O)ccc2c1C(=O)c1ccccc1C2=O [NSC 115448] | 155 | – | 15.7 | 225 | 16.6 | – | – | –
O=c1c2ccccc2c2ccccc2c(=O)n1-c1cc2c3ccccc3ccc2c2ccccc12 [NSC 128609] | 192 | – | 40 | – | 101 | – | – | –
COc1ccc2cc1Oc1ccc(cc1)CC1c3c(cc(OC)c4c3Oc3cc5c(cc3O4)CCNC5C2)CCN1C (stereo not drawn) [NSC 181486] | 4.8 | – | 25.9 | 34.7 | > 300 | – | – | –
Cc1ccc(NC(=O)c2cc3ccccc3cc2O)c(C)c1.Cc1ccc(NC(=O)c2cc3ccccc3cc2O)c(C)c1.[Ni] [NSC 306698] | – | – | – | – | – | 45 | 49.1 | CC50 [2]: 32 µM
Cc1nn(-c2ccc(S(=O)(=O)[O-])cc2)c([O-])c1N=Nc1ccc(-c2ccc(N=Nc3ccc4c(S(=O)(=O)[O-])cc(S(=O)(=O)[O-])c(N)c4c3[O-])c([O-])c2)cc1[O-].[Cu+2].[Cu+2].[H+].[H+].[H+] [NSC 306711] | – | ~10 | – | – | – | 0.87 | 4.3 | IC50 [6]: 4.7 µM; CC50 [2]: 332 µM; IC50 [7]: 6.9 µM; IC50 [8]: 5.3 µM; EC50 ([3]; BHK cells infected with WNV, MOI 0.1, 42 hours post-infection, plaque assay on Vero cells): 1 µM; IC50 [9]: 36 µM; IC50 [10]: 1.1 µM; IC50 ([4]; read-out: IC50 N7 with CHAPS): 2.3 µM; IC50 [11]: 1.2 µM
CN1CCN(c2ccc3[nH]c(-c4ccc5[nH]c(-c6ccc(O)cc6)nc5c4)nc3c2)CC1 [NSC 322921] | > 500 | ~10 | 29.9 | 26.5 | > 300 | – | – | EC50 ([3]; West Nile virus, 42 h): > 200 µM; Inhibition of the WNV titer [3]: did not inhibit the WNV titer
Ic1ccc2c(c1)N(c1ccccc1)c1cc(Nc3ccc4c(c3)N(c3ccccc3)c3cc(I)ccc3N4)ccc1N2 [NSC 402959] | 14.6 | – | – | – | – | 9.8 | 6.2 | IC50 ([4]; read-out: IC50 N7 with CHAPS): 30.8 µM
CC1=C(Nc2c(C)cc(O)cc2O)C(=O)C=c2oc3c(c21)C(C)=C(Nc1c(C)cc(O)cc1O)C(=O)C=3 [NSC 610930] | 117 | ~10 | 4.2 | 18.2 | 5.6 | – | – | EC50 ([3]; West Nile virus, 42 h): 12.6 µM
Nc1ncnc2c1ncn2[C@@H]1O[C@H](C[C@@H](N)CC[C@H](N)C(=O)O)[C@@H](O)[C@H]1O [SIN, sinefungin, reference compound] | – | – | – | – | – | – | – | Inhibition of the N7 activity of the WNV MTase [4]: ~ 80%
